Test results as given in ChEMBL document CHEMBL3774333, “Identification of SNAIL1 Peptide-Based Irreversible Lysine-Specific Demethylase 1-Selective Inactivators” (J Med Chem, 2016).
Activity calls are given as the source filed them. The calls are words filed in the database; no cut-off is given here.

What was measured:
[1] = molecular target: T1, Lysine-specific histone demethylase 1A (Homo sapiens, UniProt O60341); assay: Irreversible inhibition of LSD1 (unknown origin) using H3K4me2 peptide substrate assessed as compound-FAD adduct formation after 22 hrs by MALDI-TOF mass spectrometric analysis
[2] = molecular target: T1, Lysine-specific histone demethylase 1A; assay: Time dependent irreversible inhibition of human LSD1 using H3K4me2 peptide as substrate at 0.1 to 6.4 uM incubated for 5 mins by fluorometric assay
[3] = molecular target: T1, Lysine-specific histone demethylase 1A; assay: Inhibition of LSD1 in human HeLa cells assessed as H3K4me2/H3 ratio at 20 uM after 24 hrs by Western blot analysis in absence of fetal bovine serum; format: cell-based
[4] = molecular target: T2, Amine oxidase [flavin-containing] A (Homo sapiens, UniProt P21397); assay: biochemical
T2 sequence (P21397 whole entry): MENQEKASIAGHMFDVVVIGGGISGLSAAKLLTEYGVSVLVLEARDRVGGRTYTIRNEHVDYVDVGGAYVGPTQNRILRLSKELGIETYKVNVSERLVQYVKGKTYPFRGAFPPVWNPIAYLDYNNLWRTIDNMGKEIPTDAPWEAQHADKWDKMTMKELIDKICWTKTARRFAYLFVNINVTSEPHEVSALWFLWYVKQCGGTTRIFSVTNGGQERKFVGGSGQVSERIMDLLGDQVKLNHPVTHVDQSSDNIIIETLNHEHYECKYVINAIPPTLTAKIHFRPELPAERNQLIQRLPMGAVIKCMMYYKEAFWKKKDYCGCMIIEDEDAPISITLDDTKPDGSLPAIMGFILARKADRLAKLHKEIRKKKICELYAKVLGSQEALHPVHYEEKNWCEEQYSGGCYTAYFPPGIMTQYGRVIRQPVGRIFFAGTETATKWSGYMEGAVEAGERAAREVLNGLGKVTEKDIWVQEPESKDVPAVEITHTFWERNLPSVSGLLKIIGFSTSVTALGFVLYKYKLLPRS
Description: Inhibition of human recombinant MAO-A expressed in baculovirus infected BTI insect cells using (4S)-4,5-dihydro-2-(6-hydroxybenzothiazolyl)-4-thiazolecarboxylic acid as substrate incubated for 60 mins by MAO-Glo assay

[5] = molecular target: T3, Lysine-specific demethylase 5A (Homo sapiens, UniProt P29375)
T3 sequence (P29375 whole entry): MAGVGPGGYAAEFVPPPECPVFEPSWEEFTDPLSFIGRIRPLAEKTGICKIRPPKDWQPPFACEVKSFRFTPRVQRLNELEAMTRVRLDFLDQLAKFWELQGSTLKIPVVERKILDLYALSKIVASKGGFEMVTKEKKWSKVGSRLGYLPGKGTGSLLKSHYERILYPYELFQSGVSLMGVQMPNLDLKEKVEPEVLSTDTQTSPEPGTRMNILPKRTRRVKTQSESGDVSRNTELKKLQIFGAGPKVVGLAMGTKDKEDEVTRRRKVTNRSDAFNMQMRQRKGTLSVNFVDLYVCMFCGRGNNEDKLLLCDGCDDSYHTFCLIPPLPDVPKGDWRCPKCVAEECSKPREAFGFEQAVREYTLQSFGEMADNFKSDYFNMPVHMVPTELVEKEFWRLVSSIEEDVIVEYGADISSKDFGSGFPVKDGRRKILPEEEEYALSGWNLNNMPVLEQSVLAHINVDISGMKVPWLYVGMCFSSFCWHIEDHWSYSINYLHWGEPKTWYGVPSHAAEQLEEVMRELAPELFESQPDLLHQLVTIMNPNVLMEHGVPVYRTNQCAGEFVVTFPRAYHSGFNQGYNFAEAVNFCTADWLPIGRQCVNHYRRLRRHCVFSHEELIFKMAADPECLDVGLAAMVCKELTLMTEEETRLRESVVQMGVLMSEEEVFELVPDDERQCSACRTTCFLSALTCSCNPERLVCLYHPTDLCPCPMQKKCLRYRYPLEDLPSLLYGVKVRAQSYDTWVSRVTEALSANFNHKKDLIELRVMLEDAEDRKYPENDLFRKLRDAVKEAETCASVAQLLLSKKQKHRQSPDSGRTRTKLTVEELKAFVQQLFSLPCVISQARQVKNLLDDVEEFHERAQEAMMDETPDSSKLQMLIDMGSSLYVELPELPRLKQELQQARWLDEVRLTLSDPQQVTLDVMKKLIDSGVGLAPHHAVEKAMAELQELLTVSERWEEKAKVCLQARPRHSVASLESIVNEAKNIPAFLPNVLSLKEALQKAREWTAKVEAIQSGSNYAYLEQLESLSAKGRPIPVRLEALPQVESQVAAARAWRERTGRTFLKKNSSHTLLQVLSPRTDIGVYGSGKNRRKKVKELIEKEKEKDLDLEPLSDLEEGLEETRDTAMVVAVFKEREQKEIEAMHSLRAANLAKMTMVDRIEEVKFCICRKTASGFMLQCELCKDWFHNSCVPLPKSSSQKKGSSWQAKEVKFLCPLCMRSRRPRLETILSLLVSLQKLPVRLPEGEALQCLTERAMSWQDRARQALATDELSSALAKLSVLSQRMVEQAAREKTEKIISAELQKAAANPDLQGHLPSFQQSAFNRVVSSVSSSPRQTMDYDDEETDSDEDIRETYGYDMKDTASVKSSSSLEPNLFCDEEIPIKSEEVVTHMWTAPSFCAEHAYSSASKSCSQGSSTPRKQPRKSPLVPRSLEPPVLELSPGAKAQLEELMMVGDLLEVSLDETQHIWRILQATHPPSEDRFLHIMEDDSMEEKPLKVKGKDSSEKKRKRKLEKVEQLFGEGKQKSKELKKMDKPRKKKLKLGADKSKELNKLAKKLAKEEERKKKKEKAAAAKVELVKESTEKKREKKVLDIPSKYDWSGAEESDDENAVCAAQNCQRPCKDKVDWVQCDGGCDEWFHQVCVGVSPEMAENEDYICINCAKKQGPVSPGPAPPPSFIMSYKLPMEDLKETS
Description: Inhibition of JARID1A (unknown origin) using H3K4me3 peptide substrate preincubated for 5 mins followed by substrate addition by MALDI-TOF mass spectrometric analysis

[6] = molecular target: T4, Amine oxidase [flavin-containing] B (Homo sapiens, UniProt P27338); assay: biochemical
T4 sequence (P27338 whole entry): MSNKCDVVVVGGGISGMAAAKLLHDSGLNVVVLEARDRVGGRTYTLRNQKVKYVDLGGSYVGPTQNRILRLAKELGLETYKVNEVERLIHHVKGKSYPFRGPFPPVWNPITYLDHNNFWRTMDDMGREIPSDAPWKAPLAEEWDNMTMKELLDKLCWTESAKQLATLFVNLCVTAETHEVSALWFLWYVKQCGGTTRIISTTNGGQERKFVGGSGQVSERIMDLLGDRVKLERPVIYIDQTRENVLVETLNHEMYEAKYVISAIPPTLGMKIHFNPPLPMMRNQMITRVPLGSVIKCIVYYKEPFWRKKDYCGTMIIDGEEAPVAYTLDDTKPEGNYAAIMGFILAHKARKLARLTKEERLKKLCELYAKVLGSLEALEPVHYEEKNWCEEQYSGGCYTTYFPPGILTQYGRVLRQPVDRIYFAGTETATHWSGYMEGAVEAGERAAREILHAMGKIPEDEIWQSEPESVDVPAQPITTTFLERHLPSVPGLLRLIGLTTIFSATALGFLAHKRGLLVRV
Description: Inhibition of human recombinant MAO-B expressed in baculovirus infected BTI insect cells using (4S)-4,5-dihydro-2-(6-hydroxybenzothiazolyl)-4-thiazolecarboxylic acid as substrate incubated for 60 mins by MAO-Glo assay

[7] = molecular target: T1, Lysine-specific histone demethylase 1A; assay: biochemical
Description: Inhibition of full length N-terminal His-tagged human recombinant LSD1 (1 to 852 residues) expressed in Escherichia coli BL21(DE3) cells using H3K4me2 peptide as substrate preincubated for 5 mins followed by substrate addition measured for 30 mins by peroxidase coupled assay

[8] = molecular target: T1, Lysine-specific histone demethylase 1A; assay: Drug metabolism assessed as LSD1 (unknown origin)-mediated compound-FAD adduct formation after 22 hrs by MALDI-TOF mass spectrometric analysis in presence of excess of H3K4me2 substrate peptide; format: ADME
[9] = molecular target: T5, Lysine-specific histone demethylase 2 (Homo sapiens, UniProt Q8NB78); assay: biochemical
T5 sequence (Q8NB78 whole entry): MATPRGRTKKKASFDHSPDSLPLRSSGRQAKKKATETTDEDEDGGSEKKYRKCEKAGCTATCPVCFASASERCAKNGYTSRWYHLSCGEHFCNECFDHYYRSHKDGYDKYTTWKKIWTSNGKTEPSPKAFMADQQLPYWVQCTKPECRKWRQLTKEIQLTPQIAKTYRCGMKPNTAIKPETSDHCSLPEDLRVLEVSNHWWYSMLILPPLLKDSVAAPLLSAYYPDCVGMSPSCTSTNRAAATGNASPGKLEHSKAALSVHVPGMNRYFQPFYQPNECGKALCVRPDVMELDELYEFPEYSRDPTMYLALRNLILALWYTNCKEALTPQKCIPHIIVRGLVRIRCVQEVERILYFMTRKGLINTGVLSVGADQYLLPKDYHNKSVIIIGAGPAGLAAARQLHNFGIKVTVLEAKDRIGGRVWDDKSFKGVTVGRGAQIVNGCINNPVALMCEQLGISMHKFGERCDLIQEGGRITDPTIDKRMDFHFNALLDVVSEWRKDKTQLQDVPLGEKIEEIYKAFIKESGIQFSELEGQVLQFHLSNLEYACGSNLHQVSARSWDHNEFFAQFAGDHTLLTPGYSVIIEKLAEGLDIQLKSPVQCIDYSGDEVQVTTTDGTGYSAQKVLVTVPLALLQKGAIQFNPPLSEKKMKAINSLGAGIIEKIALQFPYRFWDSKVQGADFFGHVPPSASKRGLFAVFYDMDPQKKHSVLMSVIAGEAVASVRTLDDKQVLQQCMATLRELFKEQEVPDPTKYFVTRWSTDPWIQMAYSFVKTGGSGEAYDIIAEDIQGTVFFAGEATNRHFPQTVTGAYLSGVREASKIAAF
Description: Inhibition of full length N-terminal His-tagged human LSD2 (1 to 822 residues) expressed in Escherichia coli BL21(DE3) cells using H3K4me2 peptide substrate by MALDI-TOF mass spectrometric analysis

[10] = molecular target: T1, Lysine-specific histone demethylase 1A; assay: Inhibition of LSD1 in human HeLa cells assessed as H3K4me2/H3 ratio at 5 uM after 24 hrs by Western blot analysis in absence of fetal bovine serum; format: cell-based
[11] = molecular target: T3, Lysine-specific demethylase 5A; assay: Inhibition of JARID1A in human HeLa cells assessed as H3K4me3/H3 ratio at 10 uM after 24 hrs by Western blot analysis in absence of fetal bovine serum; format: cell-based
Homo sapiens [12] = organism: Homo sapiens
Homo sapiens [13] = organism: Homo sapiens; remark: listed apart in the source
[14] = molecular target: T3, Lysine-specific demethylase 5A; assay: Inhibition of JARID1A in human HeLa cells assessed as H3K4me3/H3 ratio at 20 uM after 24 hrs by Western blot analysis in absence of fetal bovine serum; format: cell-based
[15] = molecular target: T6, Lysine-specific histone demethylase 2 (Homo sapiens) (UniProt Q8NB78); assay: Inhibition of LSD2 in human HeLa cells assessed as H3K4me1/H3 ratio at 20 uM after 24 hrs by Western blot analysis in absence of fetal bovine serum; format: cell-based
T6 sequence (whole entry): T5 sequence (Q8NB78 whole entry)

[16] = molecular target: T3, Lysine-specific demethylase 5A; assay: Inhibition of JARID1A in human HeLa cells assessed as H3K4me3/H3 ratio at 5 uM after 24 hrs by Western blot analysis in absence of fetal bovine serum; format: cell-based
[17] = molecular target: T1, Lysine-specific histone demethylase 1A; settings: 22 h
HeLa [18] = assay: Antiproliferative activity against human HeLa cells assessed as inhibition of cell viability at 12.5 to 100 uM treated for 24 hrs measured after 48 hrs by alamar blue assay in absence of fetal bovine serum; format: functional, cell-based
[19] = molecular target: T1, Lysine-specific histone demethylase 1A; assay: Inhibition of LSD1 in human HeLa cells assessed as increase in H3K4me2 level after 24 hrs by Western blot analysis in absence of fetal bovine serum; format: cell-based
Homo sapiens [20] = organism: Homo sapiens; remark: listed apart in the source
[21] = molecular target: T6, Lysine-specific histone demethylase 2 (Homo sapiens); assay: Inhibition of LSD2 in human HeLa cells assessed as H3K4me1/H3 ratio at 10 uM after 24 hrs by Western blot analysis in absence of fetal bovine serum; format: cell-based
[22] = molecular target: T1, Lysine-specific histone demethylase 1A; assay: Inhibition of LSD1 in human HeLa cells assessed as H3K4me2/H3 ratio at 10 uM after 24 hrs by Western blot analysis in absence of fetal bovine serum; format: cell-based
[23] = molecular target: T6, Lysine-specific histone demethylase 2 (Homo sapiens); assay: Inhibition of LSD2 in human HeLa cells assessed as H3K4me1/H3 ratio at 5 uM after 24 hrs by Western blot analysis in absence of fetal bovine serum; format: cell-based
Homo sapiens [24] = organism: Homo sapiens; remark: listed apart in the source
HeLa [25] = assay: Antiproliferative activity against human HeLa cells assessed as reduction in cell viability at 25 to 100 uM treated for 24 hrs measured after 48 hrs by alamar blue assay in absence of fetal bovine serum; format: functional, cell-based

SMILES | Ratio [3] | IC50 [4] | IC50 [5] | IC50 [6] | IC50 [7] | IC50 [9] | Ratio [10] | Ratio [11] | Ratio IC50 (Homo sapiens [12]) | Ratio IC50 (Homo sapiens [13]) | Ratio [14] | Ratio [15] | Ratio [16] | Drug metabolism [17] | inhibition [19] | Ratio IC50 (Homo sapiens [20]) | Ratio [21] | Ratio [22] | Ratio [23] | Ratio IC50 (Homo sapiens [24]) | also measured
CC(C)C[C@@H](NC(=O)[C@@H](CCCNN)NC(=O)[C@@H](CO)NC(=O)[C@H](CCCNC(=N)N)NC(=O)[C@@H]1CCCN1)C(=O)N[C@@H](C(=O)N[C@H](CCCNC(=N)N)C(=O)N[C@H](CCCCN)C(=O)N1CCC[C@@H]1C(=O)N[C@H](CO)C(=O)N[C@H](CC(=O)O)C(=O)N1CCC[C@@H]1C(=O)N[C@H](CC(N)=O)C(=O)N[C@H](CCCNC(=N)N)C(=O)N[C@H](CCCCN)C(=O)N1CCC[C@@H]1C(=O)N[C@@H](CC(N)=O)C(=O)N[C@H](Cc1ccc(O)cc1)C(=O)N[C@H](CO)C(=O)N[C@H](CCC(N)=O)C(N)=O)C(C)C | 1.34 |  |  |  |  |  |  |  |  |  |  |  |  |  |  |  |  |  |  |  | inhibition [1]: Active; TDI [2]: Active
CC(C)C[C@H](NC(=O)[C@H](CCCNN)NC(=O)[C@H](CO)NC(=O)[C@H](CCCNC(=N)N)NC(=O)[C@@H]1CCCN1)C(=O)N[C@H](C(=O)N[C@@H](CCCNC(=N)N)C(=O)N[C@@H](CCCCN)C(=O)N1CCC[C@H]1C(=O)N[C@@H](CO)C(=O)N[C@@H](CC(=O)O)C(=O)N1CCC[C@H]1C(=O)N[C@@H](CC(N)=O)C(=O)N[C@@H](CCCNC(=N)N)C(=O)N[C@@H](CCCCN)C(=O)N1CCC[C@H]1C(=O)N[C@@H](CC(N)=O)C(=O)N[C@@H](Cc1ccc(O)cc1)C(=O)N[C@@H](CO)C(=O)N[C@@H](CCC(N)=O)C(N)=O)C(C)C |  | > 30 µM | > 50 µM | > 30 µM | 0.44 µM | > 50 µM |  |  |  |  |  |  |  |  |  |  |  |  |  |  | Drug metabolism [8]: metabolite_notdetected
CC(C)C[C@@H](NC(=O)[C@@H](CCCNN)NC(=O)[C@@H](CO)NC(=O)[C@@H](CCCNC(=N)N)NC(=O)[C@H]1CCCN1)C(=O)N[C@@H](C(=O)N[C@H](CCCNC(=N)N)C(=O)N[C@@H](CCCCNC(=O)COCCOCCNC(=O)[C@@H](CCCNC(=N)N)NC(=O)[C@@H](CCCNC(=N)N)NC(=O)[C@@H](CCCNC(=N)N)NC(=O)[C@@H](CCCNC(=N)N)NC(=O)[C@@H](CCCNC(=N)N)NC(=O)[C@@H](CCCNC(=N)N)NC(=O)[C@@H](CCCNC(=N)N)NC(=O)[C@@H](N)CCCNC(=N)N)C(=O)N1CCC[C@H]1C(=O)N[C@@H](CO)C(=O)N[C@@H](CC(=O)O)C(=O)N1CCC[C@H]1C(=O)N[C@@H](CC(N)=O)C(=O)N[C@@H](CCCNC(=N)N)C(=O)N[C@@H](CCCCN)C(=O)N1CCC[C@H]1C(=O)N[C@H](CC(N)=O)C(=O)N[C@@H](Cc1ccc(O)cc1)C(=O)N[C@@H](CO)C(=O)N[C@@H](CCC(N)=O)C(N)=O)C(C)C | 2.08 | > 30 µM | 12.9 µM | 30 µM | 0.29 µM | 23.2 µM | 1.29 | 0.98 | 16 | 23 | 1.01 | 1.05 | 1.03 | metabolite_detected | Dose-dependent effect | > 94 | 0.99 | 1.73 | 0.96 | 94 | inhibition (HeLa [18]): Active
CC(C)C[C@H](NC(=O)[C@H](CCCNN)NC(=O)[C@H](CO)NC(=O)[C@@H](CCCNC(=N)N)NC(=O)[C@H]1CCCN1)C(=O)N[C@H](C(=O)N[C@@H](CCCNC(=N)N)C(=O)N[C@@H](CCCCNC(=O)[C@@H](CCCNC(=N)N)NC(=O)[C@@H](CCCNC(=N)N)NC(=O)[C@@H](CCCNC(=N)N)NC(=O)[C@@H](CCCNC(=N)N)NC(=O)[C@@H](CCCNC(=N)N)NC(=O)[C@@H](CCCNC(=N)N)NC(=O)[C@@H](CCCNC(=N)N)NC(=O)[C@@H](N)CCCNC(=N)N)C(=O)N1CCC[C@H]1C(=O)N[C@@H](CO)C(=O)N[C@@H](CC(=O)O)C(=O)N1CCC[C@H]1C(=O)N[C@@H](CC(N)=O)C(=O)N[C@@H](CCCNC(=N)N)C(=O)N[C@@H](CCCCN)C(=O)N1CCC[C@H]1C(=O)N[C@H](CC(N)=O)C(=O)N[C@@H](Cc1ccc(O)cc1)C(=O)N[C@@H](CO)C(=O)N[C@@H](CCC(N)=O)C(N)=O)C(C)C | 2.19 | > 30 µM | 6.74 µM | 29 µM | 0.28 µM | 13.2 µM | 1.72 | 0.95 | 16 | 23 | 0.98 | 1.08 | 1.04 | metabolite_detected | Dose-dependent effect | > 94 | 0.98 | 1.9 | 1.01 | 94 | Activity (HeLa [25]): Active
